From patent US20050107606A1 (published 2005)

CCCn1cncc1CSc1ccc(NC(=O)C(F)(F)F)cc1
melting point: 82 to 84 °C
